Experimental data taken from patent publication US20080287493A1, “ARYLMETHYLEN SUBSTITUTED N-ACYL-Y-AMINOALCOHOLS” (priority 2007, published 2008).

Columns and labels:
human FSH receptor [1] = biological target: T1, human FSH receptor (Homo sapiens, UniProt P23945); assay: HTRF assay for measuring cAMP in cells, test for antagonism (in the presence of hFSH); type: cell-based; conditions: hFSHR clone 16 cells (CHO cells stably transfected with the human FSH receptor); in the presence of 1e-9 mol/l hFSH; 37° C. for 2 h; read-out: IC50 (FSH antagonistic effect in the HTRF assay)
T1 construct: expressed in transfected cells; host or cells: CHO cells (hFSHR clone 16)
T1 sequence (P23945 18-695): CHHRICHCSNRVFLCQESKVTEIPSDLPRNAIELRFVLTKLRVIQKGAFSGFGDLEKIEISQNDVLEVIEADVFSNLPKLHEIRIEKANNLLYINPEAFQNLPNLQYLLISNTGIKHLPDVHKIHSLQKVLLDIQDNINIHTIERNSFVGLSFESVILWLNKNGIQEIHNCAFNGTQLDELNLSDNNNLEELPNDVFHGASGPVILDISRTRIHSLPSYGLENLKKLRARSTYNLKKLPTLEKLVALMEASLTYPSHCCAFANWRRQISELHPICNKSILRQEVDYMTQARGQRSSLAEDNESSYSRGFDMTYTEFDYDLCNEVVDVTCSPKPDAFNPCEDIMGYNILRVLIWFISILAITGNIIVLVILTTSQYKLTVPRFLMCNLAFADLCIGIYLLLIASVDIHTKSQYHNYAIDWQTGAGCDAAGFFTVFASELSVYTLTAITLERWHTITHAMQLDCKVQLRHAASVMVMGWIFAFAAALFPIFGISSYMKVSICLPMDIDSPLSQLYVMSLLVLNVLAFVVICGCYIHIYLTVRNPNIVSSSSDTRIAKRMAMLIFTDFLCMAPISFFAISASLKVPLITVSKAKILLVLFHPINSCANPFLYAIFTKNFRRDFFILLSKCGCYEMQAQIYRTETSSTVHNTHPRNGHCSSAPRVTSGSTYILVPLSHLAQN
Experimental: (§1) HTRF Assay for Measuring cAMP in Cells
(§2) The method is based on a competitive immunoassay between native cAMP, which has been produced by the cells, and cAMP which is labelled with XL665. The tracer binding was visualized by a monoclonal antibody, anti-cAMP labelled with cryptate [HTRF=homogeneous time-resolved fluorescence].
(§3) The specific signal is inversely proportional to the cAMP concentration of the samples employed.
(§4) The 665 nm/620 nm fluorescence ratio was evaluated.
(§5) The following material was used: 96-well plates for the tissue culture, 96-well plates with black edge and black base (e.g. Fluotrac 600 from Greiner), 96-well plates for the substance dilutions of polypropylene and cAMP Femtomolar (4000 wells Kit, CIS Bio International # 62AM1PEC).
(§6) The following reagents were used: BSA (bovine serum albumin) Fraction V protease-free, IBMX (3-isobutyl-1-methylxanthine), hFSH (human follicle stimulating hormone), Triton X-100 analytical grade, potassium fluoride analytical grade, G 418 (Geneticin) and Accutase.
(§7) Buffer 1 (washing and testing buffer) contained PBS, 1 mM CaCl2, 1 mM MgCl2, 0.2% glucose; 0.1% BSA, 1 mM IBMX. Buffer 2 (2× lysis buffer) contained 1% Triton X-100 in PBS (without CaCl2 and MgCl2). Buffer 3 (assay buffer) contained 50 mM potassium phosphate buffer (pH 7.0); 800 mM potassium fluoride; 0.2% BSA (always added fresh).
(§8) On day 1, the cells were seeded in 96-well plates (3×10^4 cells per well hFSHR clone 16 cells (CHO cells stably transfected with the human FSH receptor in 150 μl of medium). The next day, test substance dilutions were made up. For this purpose, all the substances were diluted in ice-cold buffer 1 (with or without hFSH), and the substance dilutions were placed on ice until applied to the cells.
(§9) The cell supernatant was then aspirated off, and the cells were washed 2× with 200 μl of buffer 1. The cells were treated with 60 μl of the appropriate substance concentrations at 37° C. for 2 h. The cells were then lysed with 60 μl of buffer 2 (put onto the supernatant) (on a plate shaker at RT for 30 min).
(§10) The test conjugates (XL-665 and anti-cAMP cryptate) were diluted in buffer 3 in accordance with the manufacturers' information. The actual mixture for measurement was pipetted into a black 96-well plate (in each case 15 μl of the cell lysate diluted with 35 μl of buffer 1; firstly 25 μl of XL-665 conjugate were pipetted and, after 10 min, 25 μl of the anti-cAMP cryptate were added). This is followed by incubation at RT for 90 minutes. The measurement was carried out in a PheraStar (BMG).
(§11) Dose-effect curve (hFSH) for the human receptor: 1e-8, 3e-9, 1 e-9, 3e-10, 1e-10, 3e-11, 1e-11, 3e-12 mol/l.
(§12) The test substances were employed in suitable dilutions in the absence (test for agonism) and in the presence of 1e-9 mol/l hFSH.
(§13) The values of the well ratio were averaged and then entered directly in SigmaPlot versus the concentrations. The maximum and minimum values were determined for each plate, and half the difference is to be regarded as IC50.

human FSH receptor [2] = biological target: T1, human FSH receptor; assay: HTRF assay for measuring cAMP in cells, test for agonism (in the absence of hFSH); type: cell-based; conditions: hFSHR clone 16 cells (CHO cells stably transfected with the human FSH receptor), 37° C. for 2 h, read-out: EC50 (FSH agonistic effect in the HTRF assay)
Experimental: as §1, §2, §3, §4, §5, §6, §7, §8, §9, §10, §11, §12, §13

CCOc1ccc(-c2cccc(OC)c2)cc1C(=O)N[C@@H](CCO)Cc1c[nH]c2ccccc12 [Example 2, 4-Ethoxy-3′-methoxy-biphenyl-3-carboxylic acid [(R)-3-hydroxy-1-(1H-indol-3-ylmethyl)-propyl]-amide]
IC50 (human FSH receptor [1]): 0.3 µM
EC50 (human FSH receptor [2]): > 10 µM

CNC(=O)c1ccc(-c2ccc(OC(C)C)c(C(=O)N[C@@H](CCO)Cc3c[nH]c4ccccc34)c2)cc1Cl [Example 3, 3′-Chloro-4-isopropoxy-biphenyl-3,4′-dicarboxylicacid 3-{[(R)-3-hydroxy-1-(1H-indol-3-ylmethyl)-propyl]-amide} 4′-methylamide]
IC50 (human FSH receptor [1]): 0.025 µM
EC50 (human FSH receptor [2]): > 10 µM

COc1ccccc1C#Cc1ccc(OC(C)C)c(C(=O)N[C@@H](CCO)Cc2c[nH]c3ccccc23)c1 [Example 5, N-[(R)-3-Hydroxy-1-(1H-indol-3-ylmethyl)-propyl]-2-isopropoxy-5-(2-methoxy-phenylethynyl)-benzamide]
IC50 (human FSH receptor [1]): 0.15 µM
EC50 (human FSH receptor [2]): > 10 µM

COc1ccc2nc(-c3cc(OC)c(OC)c(OC)c3)cc(C(=O)N[C@@H](CCO)Cc3ccc4ccccc4c3)c2c1 [Example 8, 6-Methoxy-2-(3,4,5-trimethoxy-phenyl)-quinoline-4-carboxylic acid ((R)-3-hydroxy-1-naphthalen-2-ylmethyl-propyl)-amide]
IC50 (human FSH receptor [1]): > 10 µM
EC50 (human FSH receptor [2]): 7 µM

COc1ccc2nc(-c3cc(OC)c(OC)c(OC)c3)cc(C(=O)N[C@@H](CCO)Cc3csc4ccccc34)c2c1 [Example 9, 6-Methoxy-2-(3,4,5-trime-thoxy-phenyl)-quinoline-4-carboxylic acid ((R)-1-benzo-[b]thiophen-3-ylmethyl-3-hydroxy-propyl)-amide]
IC50 (human FSH receptor [1]): > 10 µM

COc1ccc2nc(-c3cc(OC)c(OC)c(OC)c3)cc(C(=O)N[C@@H](CCO)Cc3ccsc3)c2c1 [Example 12, 6-Methoxy-2-(3,4,5-trime-thoxy-phenyl)-quinoline-4-carboxylic acid ((R)-3-hydroxy-1-thiophen-3-yl-methyl-propyl)-amide]
IC50 (human FSH receptor [1]): > 10 µM
EC50 (human FSH receptor [2]): 5 µM

COc1ccc2nc(-c3cc(OC)c(OC)c(OC)c3)cc(C(=O)N[C@H](CCO)Cc3c[nH]c4ccccc34)c2c1 [Example 14, 6-Methoxy-2-(3,4,5-trimethoxy-phenyl)-quinoline-4-carboxylic acid [(S)-3-hydroxy-1-(1H-indol-3-yl-methyl)-propyl]-amide]
IC50 (human FSH receptor [1]): > 10 µM
EC50 (human FSH receptor [2]): 6 µM

COc1ccc2nc(-c3cc(OC)c(OC)c(OC)c3)cc(C(=O)N[C@H](CCO)Cc3ccccc3)c2c1 [Example 17, 6-Methoxy-2-(3,4,5-trime-thoxy-phenyl)-quinoline-4-carboxylic acid ((S)-1-benzyl-3-hydroxy-propyl)-amide]
IC50 (human FSH receptor [1]): > 10 µM
EC50 (human FSH receptor [2]): 8 µM
